Reference: patent publication US20140322161A1, “ANTI-IL-6 VACCINE COMPOSITION” (PEPTINOV SAS, priority 2011, published 2014)
Bridges are numbered along the chain shown (N, C = ends). BDB = bisdiazonium-benzidine, coupling agent to KLH

Key:
mIL-6 = molecular target: T1, mIL-6 (Mus musculus, UniProt P08505); assay: ELISA of antibody production against mIL-6 in DBA/2 mice immunized with mP2; type: in vivo; settings: 100 μg cyclized mP2 coupled to KLH, day 54 sera, FIG. 9
T1 sequence (P08505 25-211): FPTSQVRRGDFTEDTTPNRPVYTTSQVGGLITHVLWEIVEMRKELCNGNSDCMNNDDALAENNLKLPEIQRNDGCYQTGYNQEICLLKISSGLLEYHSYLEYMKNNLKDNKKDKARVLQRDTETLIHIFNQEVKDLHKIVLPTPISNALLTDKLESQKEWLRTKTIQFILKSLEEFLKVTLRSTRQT
Description: (§1) Briefly, three groups of DBA/2 mice (Janvier, France) immunized intramuscularly four times (once in complete Freund's adjuvant (CFA), and three times in incomplete Freund's adjuvant (IFA)) every 15 days with different vaccine preparations: • 8 mice were immunized with 100 μg of the above-described cyclized mP2 peptide coupled to KLH (mP2-Bleo group) and were injected subcutaneously in the back with bleomycin • 6 mice were immunized with 100 μg of mP2 (mP2-Nacl group) and were injected subcutaneously in the back with NaCl (Negative control group) • 8 mice were group immunized with 200 μg of KLH alone (KLH-Bleo group) and were injected subcutaneously in the back with bleomycin. (Positive control group)
(§2) At day 54, the mice were killed. Sera samples were collected and the antibody production against mIL-6 was quantified by ELISA. Furthermore, skin biopsies were performed to evaluate the OH-proline production, indicative of collagen production, and histological sections from the back were also performed to evaluate dermal thickness.

DBA/2 mice = assay: Murine model of bleomycin-induced systemic sclerosis after vaccination; type: in vivo; settings: for skin fibrosis (OH-proline content of skin biopsies): mP2-immunized, FIG. 10
Text: The murine model of bleomycin-induced systemic sclerosis is a well-known model of chronic inflammatory disease with main features being dermal thickness together with skin and pulmonary fibrosis due to excessive collagen production (Adamson & Bowden (1974) Am. J. Pathol. 77:185-197)
as §1
The inventors also used an additional control group composed of mice injected intraperitoneally with 100 μL (1 mg/mouse) of murine monoclonal anti IL-6 receptor antibody once a week (n=6).
The subcutaneous injections of 100 μL of bleomycin (0.5 mg/mL) were performed three days after the third boost and then every other day during three weeks in order to induce systemic sclerosis.
as §2
The collagen content was measured in the skin biopsy from each mouse by assaying hydroxyproline (OH-proline) content. OH-proline represents about 13% of collagen amino acids and is measured to evaluate collagen production. […] The absorbance is read at 560 nm.
Dermal thickness from histological sections was then measured in a blind way by two independent experts.

C57BL/6 mice = assay: Murine model of chronic colitis induced by DSS after vaccination; type: in vivo
Text: Chronic colitis induced by Dextran Sodium Sulfate (DSS) is a well-known model of chronic inflammatory disease reproducing the main characteristics of the human diseases (Alex et al. (2009) Inflamm. Bowel Dis. 15:341-352).
Briefly, groups of 6 C57BL/6 mice (Charles River Laboratories, L'Arbresle, France) were formed. The mice were immunized 4 times (once with CFA and three times with IFA) every 15 days with different vaccine preparations. The mice were respectively immunized with PBS (DSS/PBS group), 50 μg per mouse of KLH (DSS/KLH group), and 100 μg per mouse of peptide mP1, mP2, mP3, mP4, mP5 and mP6 coupled with KLH (DSS/mIL-6 peptide group). A control H2O group was also included. Four days after the first booster, colitis was induced by absorption of Dextran Sodium Sulfate (DSS) in water (2%) over 7 days followed by 7 days of water. Three DSS/water cycles were thus carried out, after which the mice received water until the end of the protocol. The clinical signs of the disease appear approximately on the fifth day after the start of treatment with DSS (D26 of the protocol). The development of the disease is measured from the start of the first DSS cycle up to the end of the protocol by a disease activity index (DAI) including weight loss, the presence of blood in the stools and the texture of the stools. The clinical scores are determined as follows: for the texture of the stools a score of 0 (hard stools) to 4 (diarrhoea), for the presence of blood in the stools a score of 0 (absence) to 4 (macroscopic blood), and weight loss a score of 0 (<1%) to 4 (>20%). Each mouse is thus assigned a clinical score with a maximum score of 12.
Then, on D67, the mice are killed by cervical dislocation. The histological sections from colon distal biopsies are scored blind, according to the severity of the inflammation (0: absence, 1: slight, 2: moderate, 3: severe), the extent of the inflammation (0: absence, 1: mucosal, 2: mucosal and sub-mucosal, 3: transmural), crypt damage (0: absence, 1: one-third damaged, 2: ⅔ damaged, 3: only the surface of the epithelium intact, 4: total destruction of the crypts and epithelium). Each mouse is thus assigned a histological score with a maximum score of 10.

hIL-6 = hIL-6 (Homo sapiens, UniProt P05231); assay: ELISA cross-reactivity of sera from OF1 mice immunized with mIL-6-derived peptides, plates covered with human IL-6; type: in vivo; settings: D54 sera diluted 1/500, plates covered with human IL-6
Text: Six peptides derived from murine IL-6 were chemically synthesized and coupled to a carrier protein, KLH (Keyhole Limpet Hemocyanin), five using the coupling agent bisdiazonium-benzidine (BDB) and one with glutaraldehyde. These peptides were then cyclized by the formation of disulfide bonds between cysteines (added or already present).
For each peptide, Oncins France 1 mice (OF1, Charles River Laboratories, L'Arbresle, France) free from specific pathogenic organisms were immunized by intra-muscular route with 100 μg of peptides derived from murine IL-6 mP1, mP2, mP3, mP4, mP5, and mP6 (see Table 1) in complete Freund's adjuvant (CFA) at the start of the experiment (D0) (n=4 per peptide).
Incomplete Freund's adjuvant (IFA) boosters are then given every 15 days, on D15, D30 and D45. The sera from mice on D54 are tested by ELISA with a 1/500th dilution of the serums on plates covered with murine IL-6 or human IL-6 in order to evaluate their cross-reactivity.

murine IL-6 = molecular target: T2, murine IL-6 (Mus musculus, UniProt P08505); assay: Murine IL-6 neutralization test on murine B9 hybridomas with purified IgGs from immunized rabbits; type: cell-based; settings: purified IgGs from rabbits immunized with the peptide; B9 hybridoma proliferation, XTT
T2 sequence (P08505 25-211): T1 sequence (P08505 25-211)
Description: The neutralizing ability of purified IgGs based on serum from rabbits immunized with the peptides mP1, mP2, mP3, mP4, mP5 and mP6 respectively, was tested in a murine IL-6 neutralization test. This test is based on the fact that murine B9 hybridomas proliferate in a dose-dependent manner in response to murine IL-6 (Brakenhoff et al. (1987) J. Immunol. 139:4116-21).
Plating (D0): seed a flat-bottom 96-well plate, treated for cell culture with 5000 cells per well in 50 μL of neutralization medium. (RPMI 1640 without phenol red, 5% v/v Foetal Calf Serum (FCS), 2 mM L-Glutamine, 100 U/mL Penicillin/Streptomycin, […] of β-Mercaptoethanol)
In parallel a so-called “pre-incubation” plate is produced with the desired concentration of murine IL-6, samples and commercial anti-mIL-6 antibodies used as positive control, all in a final volume of 100 μL of neutralization medium.
The pre-incubation plate is left at 37° C. for 2 hours. 50 μL per well is then transferred to the corresponding wells of the plate containing the cells, then the latter is incubated with 5% CO2 at 37° C. for 96 hours.
Development (D4): Add 50 μL of a solution of XTT (for 2,3-bis-(2-methoxy-4-nitro-5-sulfophenyl)-2H-tetrazolium-5-carboxanilide)—0.5% electron coupling reagent to each well. Leave to incubate at 37° C. for 7 hours. Reading of the optical density on a spectrophotometer set at 450 nm.

Chain of hIL-6 (P05231 30-212): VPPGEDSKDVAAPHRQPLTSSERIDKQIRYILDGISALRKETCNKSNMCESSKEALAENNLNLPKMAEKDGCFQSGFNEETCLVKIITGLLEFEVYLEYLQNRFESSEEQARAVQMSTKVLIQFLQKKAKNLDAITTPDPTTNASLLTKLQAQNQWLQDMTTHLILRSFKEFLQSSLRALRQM

development of antibodies against mIL-6 (ELISA) (mIL-6): developed antibodies against mIL-6
Substance: Acetyl+C76MNNDDALAENNLKLPE92C-Y-BDB (Ac-CMNNDDALAENNLKLPECY-{BDB}; disulfide 1-18 (inferred)) [mP2, peptide derived from mIL-6 region 76-92]
dermal thickening (histological sections) (DBA/2 mice; bleomycin model, versus mice immunized with KLH only, identical with anti mIL-6 receptor group, FIG. 11): lower dermal thickening | skin fibrosis (OH-proline content of skin biopsies) (DBA/2 mice; injected subcutaneously with NaCl (negative control group)): did not develop skin fibrosis | skin fibrosis (OH-proline content of skin biopsies) (DBA/2 mice; injected subcutaneously with bleomycin, same efficacy as anti IL-6 receptor antibody group): protected from the development of fibrosis | histological colitis score (C57BL/6 mice; D67 colon distal biopsies, compared with control mice treated with PBS or KLH alone, FIG. 3): significantly reduced histological score | disease activity index (DAI) (C57BL/6 mice; DSS-treated C57BL/6 mice, 100 μg peptide coupled with KLH, compared with the control groups, FIG. 2): significantly reduced disease activity index | reduction of the length of the colon (C57BL/6 mice; DSS-treated C57BL/6 mice, compared with control mice, FIG. 4): significantly less severe reduction of the colon | cross-reactivity with the human cytokine (ELISA) (hIL-6): apart from the antibodies directed against the peptide mP2 | neutralization of the biological activity of murine IL-6 (murine IL-6): neutralize the biological activity of murine IL-6 in a dose-dependent manner
